Experimental data as given in ChEMBL document CHEMBL1275550, “In vitro activity of doripenem, a carbapenem for the treatment of challenging infections caused by gram-negative bacteria, against recent clinical isolates from the United States” (2008).
Values after ≈ are worked out from the molar mass of the structure shown.

Key:
Enterobacter cloacae [1] = assay: Antimicrobial activity against Enterobacter cloacae with nonderepressed AmpC beta-lactamsae assessed as intermediate isolate by broth microdilution method; type: functional
Citrobacter [2] = assay: Antimicrobial activity against Citrobacter with nonderepressed AmpC beta-lactamsae by broth microdilution method; type: functional
Pseudomonas aeruginosa [3] = assay: Antimicrobial activity against imipenem non-susceptible Pseudomonas aeruginosa assessed as intermediate isolate by broth microdilution method; type: functional
Enterobacteriaceae [4] = assay: Antimicrobial activity against Ceftazidime non-susceptible Enterobacteriaceae assessed as intermediate isolate by broth microdilution method; type: functional
Enterobacter cloacae [5] = assay: Antimicrobial activity against Enterobacter cloacae with derepressed AmpC beta-lactamsae assessed as susceptible isolate by broth microdilution method; type: functional
Pseudomonas aeruginosa [6] = assay: Antimicrobial activity against Ceftazidime susceptible Pseudomonas aeruginosa assessed as resistant isolate by broth microdilution method; type: functional
Pseudomonas aeruginosa [7] = assay: Antimicrobial activity against Pseudomonas aeruginosa isolated from patient by broth microdilution method
Proteus mirabilis [8] = assay: Antimicrobial activity against ESBL producing Proteus mirabilis by broth microdilution method; type: functional
Enterobacter cloacae [9] = assay: Antimicrobial activity against Enterobacter cloacae with nonderepressed AmpC beta-lactamsae by broth microdilution method; type: functional
Enterobacteriaceae [10] = assay: Antimicrobial activity against ceftazidime-susceptible Enterobacteriaceae assessed as resistant isolate by broth microdilution method; type: functional
Pseudomonas aeruginosa [11] = assay: Antimicrobial activity against Ceftazidime non-susceptible Pseudomonas aeruginosa by broth microdilution method; type: functional
Escherichia coli [12] = assay: Antimicrobial activity against Non-ESBL Escherichia coli assessed as susceptible isolate by broth microdilution method; type: functional
Pseudomonas aeruginosa [13] = assay: Antimicrobial activity against Pseudomonas aeruginosa isolated from ICU patient by broth microdilution method; type: functional
Escherichia coli [14] = assay: Antimicrobial activity against Non-ESBL Escherichia coli by broth microdilution method; type: functional
Serratia marcescens [15] = assay: Antimicrobial activity against Ceftazidime susceptible Serratia marcescens by broth microdilution method; type: functional
Pseudomonas aeruginosa [16] = assay: Antimicrobial activity against Ceftazidime non-susceptible Pseudomonas aeruginosa assessed as resistant isolate by broth microdilution method; type: functional
Pseudomonas aeruginosa [17] = assay: Antimicrobial activity against Ceftazidime susceptible Pseudomonas aeruginosa assessed as intermediate isolate by broth microdilution method; type: functional
Proteus mirabilis [18] = assay: Antimicrobial activity against ESBL producing Proteus mirabilis assessed as intermediate isolate by broth microdilution method; type: functional
Acinetobacter [19] = assay: Antimicrobial activity against imipenem susceptible Acinetobacter assessed as intermediate isolate by broth microdilution method; type: functional
Escherichia coli [20] = assay: Antimicrobial activity against ESBL producing Escherichia coli by broth microdilution method; type: functional
Acinetobacter [21] = assay: Antimicrobial activity against imipenem non-susceptible Acinetobacter by broth microdilution method; type: functional
Enterobacter cloacae [22] = assay: Antimicrobial activity against Enterobacter cloacae with derepressed AmpC beta-lactamsae by broth microdilution method; type: functional
Proteus mirabilis [23] = assay: Antimicrobial activity against Non-ESBL Proteus mirabilis assessed as intermediate isolate by broth microdilution method; type: functional
Acinetobacter [24] = assay: Antimicrobial activity against imipenem susceptible Acinetobacter by broth microdilution method; type: functional
Serratia marcescens [25] = assay: Antimicrobial activity against Ceftazidime susceptible Serratia marcescens assessed as intermediate isolate by broth microdilution method; type: functional
Citrobacter [26] = assay: Antimicrobial activity against Citrobacter with nonderepressed AmpC beta-lactamsae assessed as intermediate isolate by broth microdilution method; type: functional
Escherichia coli [27] = assay: Antimicrobial activity against Non-ESBL Escherichia coli assessed as intermediate isolate by broth microdilution method; type: functional
Pseudomonas aeruginosa [28] = assay: Antimicrobial activity against imipenem susceptible Pseudomonas aeruginosa by broth microdilution method; type: functional
Enterobacteriaceae [29] = assay: Antimicrobial activity against Ceftazidime non-susceptible Enterobacteriaceae assessed as susceptible isolate by broth microdilution method; type: functional
Serratia marcescens [30] = assay: Antimicrobial activity against Ceftazidime non-susceptible Serratia marcescens by broth microdilution method; type: functional
Pseudomonas aeruginosa [31] = assay: Antimicrobial activity against imipenem non-susceptible Pseudomonas aeruginosa assessed as susceptible isolate by broth microdilution method; type: functional
Klebsiella pneumoniae [32] = assay: Antimicrobial activity against Non-ESBL Klebsiella pneumoniae by broth microdilution method; type: functional
Escherichia coli [33] = assay: Antimicrobial activity against ESBL producing Escherichia coli assessed as susceptible isolate by broth microdilution method; type: functional
Enterobacteriaceae [34] = assay: Antimicrobial activity against ceftazidime-susceptible Enterobacteriaceae assessed as susceptible isolate by broth microdilution method; type: functional
Acinetobacter [35] = assay: Antimicrobial activity against imipenem non-susceptible Acinetobacter assessed as susceptible isolate by broth microdilution method; type: functional
Klebsiella pneumoniae [36] = assay: Antimicrobial activity against Non-ESBL Klebsiella pneumoniae assessed as intermediate isolate by broth microdilution method; type: functional
Citrobacter [37] = assay: Antimicrobial activity against Citrobacter with derepressed AmpC beta-lactamsae by broth microdilution method; type: functional
Acinetobacter [38] = assay: Antimicrobial activity against imipenem non-susceptible Acinetobacter assessed as resistant isolate by broth microdilution method; type: functional
Proteus mirabilis [39] = assay: Antimicrobial activity against Non-ESBL Proteus mirabilis by broth microdilution method; type: functional
Pseudomonas aeruginosa [40] = assay: Antimicrobial activity against Pseudomonas aeruginosa isolated from ICU patient assessed as intermediate isolate by broth microdilution method
Escherichia coli [41] = assay: Antimicrobial activity against ESBL producing Escherichia coli assessed as intermediate isolate by broth microdilution method; type: functional

CC(C)(O/N=C(\C(=O)N[C@@H]1C(=O)N2C(C(=O)[O-])=C(C[n+]3ccccc3)CS[C@H]12)c1csc(N)n1)C(=O)O [CEFTAZIDIME]
Activity (Enterobacter cloacae [1]): 0.7%
MIC50 (Citrobacter [2]): 0.25 µg/mL (≈ 0.457 µM)
MIC90 (Citrobacter [2]): 1 µg/mL (≈ 1.83 µM)
Activity (Pseudomonas aeruginosa [3]): 5.3%
Activity (Enterobacteriaceae [4]): 7.6%
Activity (Enterobacter cloacae [5]): 1%
Activity (Pseudomonas aeruginosa [6]): 0%
Activity (Pseudomonas aeruginosa [7]): 2.3%
MIC (Proteus mirabilis [8]): 8 µg/mL (≈ 14.6 µM)
MIC50 (Enterobacter cloacae [9]): 0.25 µg/mL (≈ 0.457 µM)
MIC90 (Enterobacter cloacae [9]): 2 µg/mL (≈ 3.66 µM)
Activity (Enterobacteriaceae [10]): 0%
MIC50 (Pseudomonas aeruginosa [11]): 32 µg/mL (≈ 58.5 µM)
MIC90 (Pseudomonas aeruginosa [11]): > 32 µg/mL
Activity (Escherichia coli [12]): 98.6%
MIC50 (Pseudomonas aeruginosa [13]): 2 µg/mL (≈ 3.66 µM)
MIC90 (Pseudomonas aeruginosa [13]): 32 µg/mL (≈ 58.5 µM)
MIC50 (Escherichia coli [14]): 0.12 µg/mL (≈ 0.22 µM)
MIC90 (Escherichia coli [14]): 0.25 µg/mL (≈ 0.457 µM)
MIC50 (Serratia marcescens [15]): 0.12 µg/mL (≈ 0.22 µM)
MIC90 (Serratia marcescens [15]): 0.5 µg/mL (≈ 0.915 µM)
Activity (Pseudomonas aeruginosa [16]): 76.4%
Activity (Pseudomonas aeruginosa [17]): 0%
Activity (Proteus mirabilis [18]): 50%
Activity (Acinetobacter [19]): 5.5%
MIC50 (Escherichia coli [20]): 32 µg/mL (≈ 58.5 µM)
MIC90 (Escherichia coli [20]): > 32 µg/mL
MIC50 (Acinetobacter [21]): > 32 µg/mL
MIC90 (Acinetobacter [21]): > 32 µg/mL
MIC50 (Enterobacter cloacae [22]): > 32 µg/mL
MIC90 (Enterobacter cloacae [22]): > 32 µg/mL
Activity (Proteus mirabilis [23]): 0.2%
MIC50 (Acinetobacter [24]): 4 µg/mL (≈ 7.32 µM)
MIC90 (Acinetobacter [24]): > 32 µg/mL
Activity (Serratia marcescens [25]): 0%
Activity (Citrobacter [26]): 0.4%
Activity (Escherichia coli [27]): 0.5%
MIC50 (Pseudomonas aeruginosa [28]): 2 µg/mL (≈ 3.66 µM)
MIC90 (Pseudomonas aeruginosa [28]): 8 µg/mL (≈ 14.6 µM)
Activity (Enterobacteriaceae [29]): 0%
MIC (Serratia marcescens [30]): > 32 µg/mL
MIC50 (Serratia marcescens [30]): > 32 µg/mL
MIC90 (Serratia marcescens [30]): > 32 µg/mL
Activity (Pseudomonas aeruginosa [31]): 76.3%
MIC50 (Klebsiella pneumoniae [32]): 0.12 µg/mL (≈ 0.22 µM)
MIC90 (Klebsiella pneumoniae [32]): 0.5 µg/mL (≈ 0.915 µM)
Activity (Escherichia coli [33]): 33.3%
Activity (Enterobacteriaceae [34]): 100%
Activity (Acinetobacter [35]): 15.7%
Activity (Klebsiella pneumoniae [36]): 0.3%
MIC (Citrobacter [37]): > 32 µg/mL
MIC50 (Citrobacter [37]): > 32 µg/mL
MIC90 (Citrobacter [37]): > 32 µg/mL
Activity (Acinetobacter [38]): 84.3%
MIC (Proteus mirabilis [39]): ≤ 0.03 µg/mL
MIC50 (Proteus mirabilis [39]): ≤ 0.03 µg/mL
MIC90 (Proteus mirabilis [39]): 0.06 µg/mL (≈ 0.11 µM)
Activity (Pseudomonas aeruginosa [40]): 5.8%
Activity (Escherichia coli [41]): 10%
